Measurements: patent publication US8119681B2, “2-[1-phenyl-5-hydroxy or methoxy-4alpha-methyl-hexahydrocyclopenta [ƒ]indazole-5-YL]ethyl phenyl derivatives as glucocorticoid receptor ligands” (Merck Sharp & Dohme Corp., priority 2006, dated 2012)

Molecular target: T1, human GR (Homo sapiens, UniProt P04150)
T1 sequence (P04150 1-777): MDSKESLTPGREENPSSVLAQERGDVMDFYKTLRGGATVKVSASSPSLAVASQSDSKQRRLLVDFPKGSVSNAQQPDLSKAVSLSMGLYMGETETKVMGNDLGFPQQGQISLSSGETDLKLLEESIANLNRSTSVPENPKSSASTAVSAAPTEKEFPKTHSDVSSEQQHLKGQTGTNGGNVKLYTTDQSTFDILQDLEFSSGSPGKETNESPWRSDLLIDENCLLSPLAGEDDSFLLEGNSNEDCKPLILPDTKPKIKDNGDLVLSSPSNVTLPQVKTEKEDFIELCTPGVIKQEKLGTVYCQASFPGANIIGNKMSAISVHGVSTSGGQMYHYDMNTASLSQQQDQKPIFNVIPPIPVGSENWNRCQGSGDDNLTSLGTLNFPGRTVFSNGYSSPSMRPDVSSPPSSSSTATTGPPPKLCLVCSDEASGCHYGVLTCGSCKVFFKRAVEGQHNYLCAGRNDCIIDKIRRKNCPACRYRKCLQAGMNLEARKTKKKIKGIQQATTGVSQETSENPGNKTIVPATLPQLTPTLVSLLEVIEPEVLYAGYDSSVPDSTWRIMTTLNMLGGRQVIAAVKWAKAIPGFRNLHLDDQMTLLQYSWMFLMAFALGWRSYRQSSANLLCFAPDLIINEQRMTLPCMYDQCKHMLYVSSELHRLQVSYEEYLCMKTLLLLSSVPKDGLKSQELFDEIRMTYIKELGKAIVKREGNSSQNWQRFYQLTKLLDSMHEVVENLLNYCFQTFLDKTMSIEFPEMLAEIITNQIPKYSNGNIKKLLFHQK
Assay: Transrepression Assay (GITAR), TNFα-β-lactamase reporter gene in U937 cells
Type: cell-based
Parameters: U937 cells contain an endogenous glucocorticoid receptor (GR); endogenous in cells; host or cells: U937 cells stably transfected with the TNF-α promoter/β-lactamase reporter only
Details: U-937; 100 nM dexamethasone = 100% activity; read-out: maximal activity in the transrepression assay
From the text: Transrepression Assay (GITAR)
This assay assesses the ability of test compounds to control transcription from the TNFα-β-lactamase reporter gene in U937 cells, a human myelomonocytic leukemia cell line that naturally expresses the human GR. The assay measures compound dependent-repression of the TNFa promoter linked to a reporter gene.
The human U937 cells that had been stably transfected with the TNF-α promoter driving β-lactamase are used for this assay. U937 cells contain an endogenous glucocorticoid receptor (GR). […] 50,000 cells/well are plated in 96 well black-walled plates the day of assay. Test compounds are added 10 μL/well, and cells are incubated at 37° C. for 30˜45 min. For assaying compounds, first dilute 1:10 in DMSO to make 1 mM, then further dilute 1:100 in medium to make 10× stock prior to adding to the cells. Add 50 ng/ml PMA (Sigma, cat# P8139) 10 μL/well to a final concentration 5 ng/ml, and 1 μg/ml LPS (Sigma, cat# L4130) 10 μL/well to a final concentration 100 ng/ml. Incubate cells at 370 C overnight for ˜18 hr. PMA is stored frozen as 100 μg/ml stock in DMSO. Dilute 1:10 in DMSO for a working stock of 10 μg/ml and store at −20 C. For assaying, dilute the 10 μg/ml working stock 1:200 in medium to make a 10× solution (50 ng/ml). Store frozen LPS at 1 mg/ml in PBS, dilute 1:1000 in medium to make 10× (1 μg/ml) for the assay. Add 6× loading buffer (CCF2-AM) 20 μL/well, and incubate at room temperature for 70˜90 min. […] The activity repressed by 100 nM dexamethasone alone is set as 100% activity.

SMILES	Emax
C[C@]12Cc3cnn(-c4ccc(F)cc4)c3C=C1CC[C@@]2(O)CCc1ccccc1C(=O)N1CC[C@H](F)C1 [Example 54, (4αS,5R)-1-(4-fluorophenyl)-5-[2-(2-{[(3S)-3-fluoropyrrolidin-1-yl]carbonyl}phenyl)ethyl]-4α-methyl-1,4,4α,5,6,7-hexahydrocyclopenta[f]indazol-5-ol]	5 to 100%
C[C@]12Cc3cnn(-c4ccc(F)cc4)c3C=C1CC[C@@]2(O)CCc1ccccc1CC(=O)NCC(F)(F)F [Example 56, 2-(2-{2-[(4αS,5R)-1-(4-fluorophenyl)-5-hydroxy-4α-methyl-1,4,4α,5,6,7-hexahydrocyclopenta[f]indazol-5-yl]ethyl}phenyl)-N-(2,2,2-trifluoroethyl)acetamide]	5 to 100%
C[C@]12Cc3cnn(-c4ccc(F)cc4)c3C=C1CC[C@@]2(O)CCc1ccccc1C(=O)N1CC[C@@H](O)C1 [Example 58, (4αS,5R)-1-(4-fluorophenyl)-5-[2-(2-{[(3R)-3-hydroxypyrrolidin-1-yl]carbonyl}phenyl)ethyl]-4α-methyl-1,4,4α,5,6,7-hexahydrocyclopenta[f]indazol-5-ol]	5 to 100%
CC1(NC(=O)c2c(F)cccc2CC[C@]2(O)CCC3=Cc4c(cnn4-c4ccc(F)cc4)C[C@@]32C)CC1 [Example 63, 2-fluoro-6-{2-[(4αS,5R)-1-(4-fluorophenyl)-5-hydroxy-4α-methyl-1,4,4α,5,6,7-hexahydrocyclopenta[f]indazol-5-yl]ethyl}-N-(1-methylcyclopropyl)benzamide]	5 to 100%
C[C@]12Cc3cnn(-c4ccc(F)cc4)c3C=C1CC[C@@]2(O)CCc1cccc(F)c1C(=O)N1CCC1 [Example 65, (4αS,5R)-5-{2-[2-(azetidin-1-ylcarbonyl)-3-fluorophenyl]ethyl}-1-(4-fluorophenyl)-4α-methyl-1,4,4α,5,6,7-hexahydrocyclopenta[f]indazol-5-ol]	5 to 100%
C[C@]12Cc3cnn(-c4ccc(F)cc4)c3C=C1CC[C@@]2(O)CCc1ccccc1C(=O)N1CCCC(F)(F)C1 [Example 66, (4αS,5R)-5-(2-{2-[(3,3-difluoropiperidin-1-yl)carbonyl]phenyl}ethyl)-1-(4-fluorophenyl)-4α-methyl-1,4,4α,5,6,7-hexahydrocyclopenta[f]indazol-5-ol]	5 to 100%
C[C@]12Cc3cnn(-c4ccc(F)cc4)c3C=C1CC[C@@]2(O)CCc1cccc(F)c1C(N)=O [Example 68, 2-fluoro-6-{2-[(4αS,5R)-1-(4-fluorophenyl)-5-hydroxy-4α-methyl-1,4,4α,5,6,7-hexahydrocyclopenta[f]indazol-5-yl]ethyl}benzamide]	5 to 100%
C[C@]12Cc3cnn(-c4ccc(F)cc4)c3C=C1CC[C@@]2(O)CCc1cccc(F)c1C(=O)N1CC[C@H](F)C1 [Example 69, (4αS,5R)-5-[2-(3-fluoro-2-{[(3S)-3-fluoropyrrolidin-1-yl]carbonyl}phenyl)ethyl]-1-(4-fluorophenyl)-4α-methyl-1,4,4α,5,6,7-hexahydrocyclopenta[f]indazol-5-ol]	5 to 100%
C[C@]12Cc3cnn(-c4ccc(F)cc4)c3C=C1CC[C@@]2(O)CCc1ccccc1C(=O)N1CCC(F)(F)C1 [Example 74, (4αS,5R)-5-(2-{2-[(3,3-difluoropyrrolidin-1-yl)carbonyl]phenyl}ethyl)-1-(4-fluorophenyl)-4α-methyl-1,4,4α,5,6,7-hexahydrocyclopenta[f]indazol-5-ol]	5 to 100%
C[C@]12Cc3cnn(-c4ccc(F)cc4)c3C=C1CC[C@@]2(O)CCc1cccc(F)c1C(=O)N1CCCC(F)(F)C1 [Example 76, (4αS,5R)-5-(2-{2-[(3,3-difluoropiperidin-1-yl)carbonyl]-3-fluorophenyl}ethyl)-1-(4-fluorophenyl)-4α-methyl-1,4,4α,5,6,7-hexahydrocyclopenta[f]indazol-5-ol]	5 to 100%
C[C@]12Cc3cnn(-c4ccc(F)cc4)c3C=C1CC[C@@]2(O)CCc1cccc(F)c1C(=O)N1CCC(F)(F)C1 [Example 77, (4αS,5R)-5-(2-{2-[(3,3-difluoropyrrolidin-1-yl)carbonyl]-3-fluorophenyl}ethyl)-1-(4-fluorophenyl)-4α-methyl-1,4,4α,5,6,7-hexahydrocyclopenta[f]indazol-5-ol]	5 to 100%
C[C@]12Cc3cnn(-c4ccc(F)cc4)c3C=C1CC[C@@]2(O)CCc1cccc(F)c1CNS(=O)(=O)c1ccccc1 [Example 78, N-(2-fluoro-6-{2-[(4αS,5R)-1-(4-fluorophenyl)-5-hydroxy-4α-methyl-1,4,4α,5,6,7-hexahydrocyclopenta[f]indazol-5-yl]ethyl}benzyl)benzenesulfonamide]	5 to 100%

The remaining lines, values ahead:

Emax	SMILES
5 to 100%	C[C@]12Cc3cnn(-c4ccc(F)cc4)c3C=C1CC[C@@]2(O)CCc1ccccc1C(N)=O [Example 60, 2-{2-[(4αS,5R)-1-(4-fluorophenyl)-5-hydroxy-4α-methyl-1,4,4α,5,6,7-hexahydrocyclopenta[f]indazol-5-yl]ethyl}benzamide]
5 to 100%	C[C@]12Cc3cnn(-c4ccc(F)cc4)c3C=C1CC[C@@]2(O)CCc1ccccc1C(=O)NCC(F)(F)F [Example 64, 2-{2-[(4αS,5R)-1-(4-fluorophenyl)-5-hydroxy-4α-methyl-1,4,4α,5,6,7-hexahydrocyclopenta[f]indazol-5-yl]ethyl}-N-(2,2,2-trifluoroethyl)benzamide]
5 to 100%	CC(C)NC(=O)c1c(F)cccc1CC[C@]1(O)CCC2=Cc3c(cnn3-c3ccc(F)cc3)C[C@@]21C [Example 67, 2-fluoro-6-{2-[(4αS,5R)-1-(4-fluorophenyl)-5-hydroxy-4α-methyl-1,4,4α,5,6,7-hexahydrocyclopenta[f]indazol-5-yl]ethyl}-N-isopropylbenzamide]
5 to 100%	CC(C)(NC(=O)c1ccccc1CC[C@]1(O)CCC2=Cc3c(cnn3-c3ccc(F)cc3)C[C@@]21C)C(N)=O [Example 70, N-(2-amino-1,1-dimethyl-2-oxoethyl)-2-{2-[(4αS,5R)-1-(4-fluorophenyl)-5-hydroxy-4α-methyl-1,4,4α,5,6,7-hexahydrocyclopenta[f]indazol-5-yl]ethyl}benzamide]
5 to 100%	CCNC(=O)C(C)(C)NC(=O)c1ccccc1CC[C@]1(O)CCC2=Cc3c(cnn3-c3ccc(F)cc3)C[C@@]21C [Example 71, N-[2-(ethylamino)-1,1-dimethyl-2-oxoethyl]-2-{2-[(4αS,5R)-1-(4-fluorophenyl)-5-hydroxy-4α-methyl-1,4,4α,5,6,7-hexahydrocyclopenta[f]indazol-5-yl]ethyl}benzamide]
5 to 100%	COC(=O)[C@@H](C)NC(=O)c1ccccc1CC[C@]1(O)CCC2=Cc3c(cnn3-c3ccc(F)cc3)C[C@@]21C [Example 72, methyl N-(2-{2-[(4αS,5R)-1-(4-fluorophenyl)-5-hydroxy-4α-methyl-1,4,4α,5,6,7-hexahydrocyclopenta[f]indazol-5-yl]ethyl}benzoyl)-D-alaninate]
5 to 100%	CC1CN1C(=O)c1ccccc1CC[C@]1(O)CCC2=Cc3c(cnn3-c3ccc(F)cc3)C[C@@]21C (stereo partly drawn) [Example 73, (4αS,5R)-1-(4-fluorophenyl)-4α-methyl-5-(2-{2-[(2-methylaziridin-1-yl)carbonyl]phenyl}ethyl)-1,4,4α,5,6,7-hexahydrocyclopenta[f]indazol-5-ol]
5 to 100%	CNC(=O)C(C)(C)NC(=O)c1ccccc1CC[C@]1(O)CCC2=Cc3c(cnn3-c3ccc(F)cc3)C[C@@]21C [Example 75, N-[1,1-dimethyl-2-(methylamino)-2-oxoethyl]-2-{2-[(4αS,5R)-1-(4-fluorophenyl)-5-hydroxy-4α-methyl-1,4,4α,5,6,7-hexahydrocyclopenta[f]indazol-5-yl]ethyl}benzamide]
